According to US10905683B2, “Compositions and uses of amidine derivatives” (BIOCRYST PHARMACEUTICALS, INC., priority 2014, dated 2021):
Several values for one entry are separate records, joined by “and”; a condition that tells them apart may be missing. Equal entries are not always repeated.

What was measured:
[1] = Relative bioavailability crossover study, soft v. hard gelatin capsules and food effect; type: in vivo, human
Method: A single dose, randomized, 3-period crossover study was conducted to evaluate the relative bioavailability of the compound of Example 1 formulated as a soft gelatin capsule to the compound of Example 1 formulated as a hard gelatin capsule and to determine the effect of food on the pharmacokinetics of the compound of Example 1. The goals of this study were to ascertain the relative bioavailability and pharmacokinetics of the compound of Example 1 in soft gelatin capsules to hard gelatin capsules when administered following an overnight fast in healthy subjects. In addition, the study estimated the effect of a high-fat meal upon the pharmacokinetics of the compound of Example 1 following single dose administration of 400 mg of the compound of Example 1 in a soft gelatin capsules to healthy subjects. Hard and soft gelatin capsules were prepared as in Example 8 and 9, respectively, below.
The study was a single-dose, open-label, randomized, 3-way cross-over design. During each treatment period, eighteen subjects will receive a single dose of one of the following treatments in a randomized sequence:
Treatment A: BCX4161 400 mg as 4×100 mg hard gelatin capsules following an overnight fast
Treatment B: BCX4161 400 mg as 4×100 mg soft gelatin capsules following an overnight fast
Treatment C: BCX4161 400 mg as 4×100 mg soft gelatin capsules following a high fat meal […]

[2] = Solubility with cyclodextrins and co-agents; type: physicochemical; details: for solubility: aqueous with cosolvent or surfactant or cyclodextrin, thermodynamic from solid
Method: Additional solubility studies were undertaken using cyclodextrins, including α-cyclodextrin and a polyanionic β-cyclodextrin derivative with a sodium sulfonate salt separated from the lipophilic cavity by a butyl ether or sulfobutylether spacer group) (referred to herein as Captisol) in combination with a variety of co-agents.
Test samples were prepared with the indicated cyclodextrins and the compound of Example 1, both with and without additional agents. The test solutions were sonicated in a Fisher model 55 dismembrator (small probe) at its maximum setting of 5 for 90 seconds. The samples were rotated overnight at room temperature to allow equilibration. Quantitation was performed by comparison of the concentrations of the resulting solution of the compound 1 to a single point calibration curve using a solution of the reference standard.

[3] = Solubility in surfactant solutions; type: physicochemical
Method: The solubility of the compound of Example 1 in a range of surfactants was measured. Solubility assays were performed by the sequential addition of the compound of Example 1 to an appropriate organic solvent while stirring vigorously until a precipitate is formed. The resulting suspension is then shaken for 24 hours at room temperature, filtered and the resulting solution was analyzed by appropriate analytical method. Quantitation was performed by comparison of the concentrations of the resulting solution of the compound of Example 1 to a single point calibration curve using a solution of the reference standard.

C=Cc1cc(C(=O)Nc2ccc(C(=N)N)cc2)c(-c2ccc(C(=O)NCC3CC3)nc2C(=O)O)cc1OC [Example 1, 3-[2-(4-carbamimidoyl-phenylcarbamoyl)-5-methoxy-4-vinyl-phenyl]-6-(cyclopropylmethyl-carbamoyl)-pyridine-2-carboxylic acid]
geometric mean Cmax, soft gelatin capsules as compared to hard gelatin capsules ([1]; 400 mg single dose, fasting): approximately 80% | bioavailability ([1]; formulated in a soft gelatin capsule): good bioavailability | solubility ([2]; Captisol 150 mM with DMSO 10%, Captisol 150 mM, DMSO 10%): 3980 µg/mL | solubility ([2]; Captisol 150 mM with ethanol 10%, Captisol 150 mM, Ethanol 10%): 3550 µg/mL | solubility ([2]; Captisol 150 mM with propylene glycol 10%, Captisol 150 mM, Propylene glycol 10%): 3300 µg/mL | solubility ([2]; Captisol 150 mM with sodium dodecyl sulphate 100 mg, Captisol 150 mM, Sodium dodecyl sulphate 100 mg): 240 µg/mL | solubility ([2]; Captisol (sulfobutylether β-cyclodextrin) solution, Captisol 150 mM, no co-solvent): 7610 µg/mL | solubility ([2]; Captisol solution with co-agent, Captisol 150 mM, HPMC E-5 0.25%): 4160 µg/mL | solubility ([2]; Captisol solution with co-agent, Captisol 150 mM, Polyethylene glycol 400 10%): 5460 µg/mL | solubility in cyclodextrins ([2]; with and without co-agents): not soluble in cyclodextrins | solubility ([2]; α-cyclodextrin 150 mM with DMSO 10%, α-cyclodextrin 150 mM, DMSO 10%): 11100 µg/mL | solubility ([2]; α-cyclodextrin 150 mM with ethanol 10%, α-cyclodextrin 150 mM, Ethanol 10%): 270 µg/mL | solubility ([2]; α-cyclodextrin 150 mM with propylene glycol 10%, α-cyclodextrin 150 mM, Propylene glycol 10%): 4980 µg/mL | solubility ([2]; α-cyclodextrin solution with co-agent, α-cyclodextrin 150 mM, HPMC E-5 0.25%): 9950 µg/mL | solubility ([2]; α-cyclodextrin solution with co-agent, α-cyclodextrin 150 mM, Polyethylene glycol 400 10%): 5000 µg/mL | solubility ([2]; α-cyclodextrin solution with co-agent, α-cyclodextrin 150 mM, Sodium dodecyl sulphate 100 mg): 10000 µg/mL | solubility ([2]; α-cyclodextrin solution, α-cyclodextrin 150 mM, no co-solvent): 10000 µg/mL | Saturated concentration of Example 1 ([3]; 3-[(3-Chloamidopropyl)-dimethylamino]-1-propanesulfate 1%): 0.66 mg/mL | Saturated concentration of Example 1 ([3]; D-alpha-tocopheryl-polyethylene glycol 1000 succinate 12.3% (in PEG 400)): 7.8 mg/mL | Saturated concentration of Example 1 ([3]; D-alpha-tocopheryl-polyethylene glycol 1000 succinate 20% (in PEG 400)): 20.8 mg/mL | Saturated concentration of Example 1 ([3]; Lecithin 2% (in water)): 1.2 mg/mL | Saturated concentration of Example 1 ([3]; Lecithin 4% (in PEG 400)): 3.3 mg/mL | Saturated concentration of Example 1 ([3]; Lecithin 4% (in water)): 2.2 mg/mL | Saturated concentration of Example 1 ([3]; Lecithin 10% (in PEG 400)): 10.6 mg/mL | Saturated concentration of Example 1 ([3]; Lecithin 10% (in water)): 3.1 mg/mL | Saturated concentration of Example 1 ([3]; Octadecyl amine 1% (in PEG 400)): 7.8 mg/mL and 7.1 mg/mL | Saturated concentration of Example 1 ([3]; Palmitoyl-carnitine chloride 0.10% (in water)): 0.3 mg/mL | Saturated concentration of Example 1 ([3]; dioctyl sodium sulfosuccinate 1% in PEG400): 1.72 mg/mL | Saturated concentration of Example 1 ([3]; sodium lauryl sulphate 1% (in water)): 2.4 mg/mL | Saturated concentration of Example 1 ([3]; sodium lauryl sulphate 2% (in water)): 4.7 mg/mL | Saturated concentration of Example 1 ([3]; sodium lauryl sulphate 5% (in water)): 10 mg/mL
